{"source": "patent US10160753B2", "about": "“Indazole compounds as IRAK4 inhibitors” (Aurigene Discovery Technologies Limited, priority 2014, dated 2018)", "note": "Where a name gives a salt, the structure may show the parent alone.", "data": [{"target": "T1, recombinant IRAK-4 kinase (Homo sapiens, UniProt Q9NWZ3)", "T1 construct": "purchased Millipore, USA", "T1 sequence (Q9NWZ3 1-460)": "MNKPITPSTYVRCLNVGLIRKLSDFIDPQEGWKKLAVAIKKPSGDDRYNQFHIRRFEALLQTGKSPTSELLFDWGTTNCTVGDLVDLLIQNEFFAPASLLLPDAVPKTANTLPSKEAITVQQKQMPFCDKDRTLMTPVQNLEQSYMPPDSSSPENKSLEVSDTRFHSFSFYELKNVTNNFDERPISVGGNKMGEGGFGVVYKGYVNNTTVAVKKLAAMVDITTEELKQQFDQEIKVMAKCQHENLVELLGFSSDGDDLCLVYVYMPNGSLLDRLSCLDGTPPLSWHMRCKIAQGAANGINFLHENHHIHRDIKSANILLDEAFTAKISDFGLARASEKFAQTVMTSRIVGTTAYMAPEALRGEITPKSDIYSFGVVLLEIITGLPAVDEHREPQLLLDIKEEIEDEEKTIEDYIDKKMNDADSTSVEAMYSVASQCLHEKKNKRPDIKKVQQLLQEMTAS", "assay": "IRAK-4 Biochemical Assay (TR-FRET)", "settings": "30 min pre-incubation, 100 nM Biotin Histone H3, 20 μM ATP, read-out: IC50 values for IRAK4 activity", "experimental": "Compounds were tested for their potential to inhibit IRAK-4 enzyme in a TR-FRET assay using recombinant IRAK-4 kinase from Millipore, USA. The assay buffer was 50 mM Tris-HCl pH 7.5, 20 mM MgCl2, 1 mM EGTA, 2 mM DTT, 3 mM MnCl2 and 0.01% Tween 20.5 ng of IRAK-4 kinase was used for the assay. After pre-incubation of enzyme with test compound for 30 minutes at room temperature, a substrate mixture containing 100 nM Biotin Histone H3 (Millipore, USA) and 20 μM ATP (Sigma, USA) was added and the reaction was incubated for 30 min. Post incubation, the reaction was stopped by the addition of stop mix containing 40 mM EDTA, 1 nM of Europium-Anti-Phospho-Histone H3 (Ser10) antibody (Perkin Elmer, USA) and 20 nM SureLight Allophycocyanin-Streptavidin (Perkin Elmer, USA). The fluorescence emission at 615 nm and 665 nm were measured at an excitation of 340 nm and the percent inhibition was estimated from the ratio of the fluorescence intensities [(F665/F615)×10000]. The compounds were initially screened at 1 μM and 10 μM concentrations and potent compounds (>50% inhibition at 1 μM) were taken for dose response studies. The IC50 values were estimated by fitting the dose-response data to sigmoidal dose response (variable slope), curve fitting program using Graphpad Prism software Version 6.01.", "units": {"IC50": "nM"}, "values": [{"molecule": "Cn1cc2cc(NC(=O)c3cccc(N4CC[C@H](N)C4)n3)c(N3CCCCC3)cc2n1", "note": "[Example 33, (S)-6-(3-aminopyrrolidin-1-yl)-N-(2-methyl-6-(piperidin-1-yl)-2H-indazol-5-yl)picolinamide 2,2,2-trifluoroacetate]", "IC50": "50 to 100"}, {"molecule": "C[C@H](O)Cn1cc(-c2cccc(C(=O)Nc3cc4cn(C)nc4cc3N3CCCCC3)n2)cn1", "note": "[Example 34, (S)-6-(1-(2-hydroxypropyl)-1H-pyrazol-4-yl)-N-(2-methyl-6-(piperidin-1-yl)-2H-indazol-5-yl)picolinamide]", "IC50": "< 50"}, {"molecule": "Cc1cc(-c2nc(C(=O)Nc3cc4cnn(C5CC5)c4cc3C3CC3)co2)ccn1", "note": "[Example 36, N-(1,6-dicyclopropyl-1H-indazol-5-yl)-2-(2-methylpyridin-4-yl)oxazole-4-carboxamide hydrochloride]", "IC50": "50 to 100"}, {"molecule": "Cn1ncc2cc(NC(=O)c3cccc(N4CC[C@H](O)C4)n3)c(C3CC3)cc21", "note": "[Example 37, (S)—N-(6-cyclopropyl-1-methyl-1H-indazol-5-yl)-6-(3-hydroxypyrrolidin-1-yl)picolinamide]", "IC50": "> 100"}, {"molecule": "Cn1cc2cc(NC(=O)c3cccc(N4CC[C@@H](O)C4)n3)c(N3CCCCC3)cc2n1", "note": "[Example 38, (R)-6-(3-hydroxypyrrolidin-1-yl)-N-(2-methyl-6-(piperidin-1-yl)-2H-indazol-5-yl)picolinamide]", "IC50": "< 50"}, {"molecule": "Cn1cc2cc(NC(=O)c3cccc(N4CC[C@H](O)C4)n3)c(N3CCCCC3)cc2n1", "note": "[Example 39, (S)-6-(3-hydroxypyrrolidin-1-yl)-N-(2-methyl-6-(piperidin-1-yl)-2H-indazol-5-yl)picolinamide]", "IC50": "< 50"}, {"molecule": "Cn1cc2cc(NC(=O)c3cccc(N4CCC(O)C4)n3)c(N3CCCCC3)cc2n1", "note": "(stereo not drawn) [Example 40, 6-(3-hydroxypyrrolidin-1-yl)-N-(2-methyl-6-(piperidin-1-yl)-2H-indazol-5-yl)picolinamide]", "IC50": "< 50"}, {"molecule": "Cn1cc2cc(NC(=O)c3cccc(N4CC[C@@H](N)C4)n3)c(N3CCCCC3)cc2n1", "note": "[Example 42, (R)-6-(3-aminopyrrolidin-1-yl)-N-(2-methyl-6-(piperidin-1-yl)-2H-indazol-5-yl)picolinamide]", "IC50": "50 to 100"}, {"molecule": "C[C@@H](O)Cn1cc(-c2cccc(C(=O)Nc3cc4cn(C)nc4cc3N3CCCCC3)n2)cn1", "note": "[Example 43, (R)-6-(1-(2-hydroxypropyl)-1H-pyrazol-4-yl)-N-(2-methyl-6-(piperidin-1-yl)-2H-indazol-5-yl)picolinamide]", "IC50": "< 50"}, {"molecule": "Cn1cc2cc(NC(=O)c3coc(N4CC[C@H](N)C4)n3)c(N3CCCCC3)cc2n1", "note": "[Example 44, (S)-2-(3-aminopyrrolidin-1-yl)-N-(2-methyl-6-(piperidin-1-yl)-2H-indazol-5-yl)oxazole-4-carboxamide]", "IC50": "< 50"}, {"molecule": "Cc1cc(-c2nc(C(=O)Nc3cc4cnn(C)c4cc3C3CC3)co2)ccn1", "note": "[Example 45, N-(6-cyclopropyl-1-methyl-1H-indazol-5-yl)-2-(2-methylpyridin-4-yl)oxazole-4-carboxamide]", "IC50": "< 50"}, {"molecule": "C[C@H](O)Cn1cc(-c2cccc(C(=O)Nc3cc4cnn(C)c4cc3C3CC3)n2)cn1", "note": "[Example 46, (S)—N-(6-cyclopropyl-1-methyl-1H-indazol-5-yl)-6-(1-(2-hydroxypropyl)-1H-pyrazol-4-yl)picolinamide]", "IC50": "50 to 100"}, {"molecule": "C[C@H](O)Cn1cc(-c2cccc(C(=O)Nc3cc4cn(C)nc4cc3C3CC3)n2)cn1", "note": "[Example 47, (S)—N-(6-cyclopropyl-2-methyl-2H-indazol-5-yl)-6-(1-(2-hydroxypropyl)-1H-pyrazol-4-yl)picolinamide]", "IC50": "< 50"}, {"molecule": "Cn1cc2cc(NC(=O)c3cccc(N4CC[C@H](N)C4)n3)c(C3CC3)cc2n1", "note": "[Example 48, (S)-6-(3-aminopyrrolidin-1-yl)-N-(6-cyclopropyl-2-methyl-2H-indazol-5-yl)picolinamide]", "IC50": "> 100"}, {"molecule": "Cn1cc2cc(NC(=O)c3cccc(N4CC[C@H](O)C4)n3)c(C3CC3)cc2n1", "note": "[Example 49, (S)—N-(6-cyclopropyl-2-methyl-2H-indazol-5-yl)-6-(3-hydroxypyrrolidin-1-yl)picolinamide]", "IC50": "< 50"}]}]}
